US20140309192A1, “MODULATORS OF THE G PROTEIN-COUPLED MAS RECEPTOR AND THE TREATMENT OF DISORDERS RELATED THERETO” (ARENA PHARMACEUTICALS, INC., priority 2011, published 2014)
Like-named read-outs stand apart in the source and are kept apart here.

Columns and labels:
Male Sprague Dawley rats = assay: Rat model of transient cerebral ischemia/stroke; format: in vivo; conditions: 3 mg/kg bolus i.v. 1 min prior to MCA occlusion or at the onset of reperfusion
Description: Rats were anesthetized with pentobarbital (70 mg/kg). Normal body temperature was maintained by placing the animals on heating pads. A midline neck incision was made and soft tissues were pulled apart, and the external carotid artery (ECA), and internal carotid artery (ICA) were exposed. […] An incision was made around the left hind leg area and exposing the femoral vein. A 30-mm length of 3-0 monofilament nylon suture coated with 0.1% poly-lysine was inserted into the right ICA lumen through a small incision at about 4-mm proximal to the carotid bifurcation. The filament was advanced 18-22 mm from the start of the carotid bifurcation to block the origin of the right middle cerebral artery (MCA) for the ischemia time designed. Reperfusion was obtained by pulling out the occluding filament at the end of the MCA. After occlusion the tissues around the neck were closed with 4-0 silk suture (Ethicon, 1677G). The skin around the neck was closed with metal clips and the cutting area was treated with iodine. At the end of the reperfusion period (e.g. 24 h) the rats were anesthetized with Nembutal (70 mg/kg) and the brains were removed. […] Whole area (WA) and infarct area (IA) were measured for each coronal section. Brain damage was assessed by IA/(IA+WA). […]

human Mas receptor [1] = biological target: T1, human Mas receptor (Homo sapiens, UniProt P04201); assay: HTRF IP1 assay, HEK293 cells expressing human Mas receptor; format: cell-based
T1 construct: expressed in transfected cells; host or cells: HEK293 (ATCC CRL-1573)
T1 sequence (P04201 1-325): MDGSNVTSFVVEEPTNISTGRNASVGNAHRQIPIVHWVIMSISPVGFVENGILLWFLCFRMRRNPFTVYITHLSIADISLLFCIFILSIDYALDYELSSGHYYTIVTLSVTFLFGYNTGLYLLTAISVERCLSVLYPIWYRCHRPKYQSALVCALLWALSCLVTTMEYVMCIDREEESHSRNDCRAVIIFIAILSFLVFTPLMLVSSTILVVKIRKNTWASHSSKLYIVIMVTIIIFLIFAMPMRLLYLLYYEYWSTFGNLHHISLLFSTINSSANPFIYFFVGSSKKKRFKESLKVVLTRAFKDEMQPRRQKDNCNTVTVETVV

rat Mas receptor = biological target: T2, rat Mas receptor (Rattus norvegicus, UniProt P12526); assay: HTRF IP1 assay, HEK293 cells expressing rat Mas receptor; format: cell-based
T2 construct: expressed in transfected cells; host or cells: HEK293 (ATCC CRL-1573)
T2 sequence (P12526 1-324): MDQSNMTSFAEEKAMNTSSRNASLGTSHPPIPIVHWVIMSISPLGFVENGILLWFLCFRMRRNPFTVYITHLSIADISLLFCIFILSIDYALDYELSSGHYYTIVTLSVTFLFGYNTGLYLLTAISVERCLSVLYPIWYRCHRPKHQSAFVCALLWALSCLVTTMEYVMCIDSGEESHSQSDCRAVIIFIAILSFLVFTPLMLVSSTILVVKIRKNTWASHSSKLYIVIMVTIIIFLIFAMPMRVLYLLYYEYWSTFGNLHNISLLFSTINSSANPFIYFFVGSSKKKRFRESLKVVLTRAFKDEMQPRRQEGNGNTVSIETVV

human Mas receptor [2] = biological target: T1, human Mas receptor; assay: Ca2+ measurements by FLIPR assay, HEK293 cells stably expressing human Mas receptors; format: cell-based; conditions: HEK293 cells stably expressing the human Mas receptor
Description: HEK293 cells stably expressing human Mas receptors were monitored for changes in intracellular Ca^2+ using a FLIPR-384 (Molecular Devices, Sunnyvale, Calif.). Cells were seeded into black-walled clear-base 384-well plates at a density of 2×10^4 cells per well and incubated with Hank's Balanced Salt Solution (HBSS) containing 20 mM HEPES pH 7.4, 2 μM Calcium 3 dye (Molecular Devices Corporation, Sunnyvale, Calif.) and 2.5 mM probenecid at 37° C. for 60 min. Cells were washed with HBSS containing 20 mM HEPES, pH 7.4 and 2.5 mM probenecid and the plates were then placed into the FLIPR instrument to monitor cell fluorescence before and after the addition of the agonists at different concentrations.

| Compound | brain damage associated with transient ischemic injury (Male Sprague Dawley rats) | IC50 (human Mas receptor [1]; HTRF IP1 assay, human Mas receptor (Table B.2), read-out: IC50) [nM] | IC50 (rat Mas receptor; HTRF IP1 assay, rat Mas receptor (Table B.1), read-out: IC50) [nM] | IC50 (human Mas receptor [1]; IP assay, HEK293 cells stably expressing human Mas, 4 h, means ± SEM, read-out: Human IC50) [nM] | ligand activity in IP assay, human Mas (human Mas receptor [1]; Table C, line under Human IC50) | intracellular Ca2+ (human Mas receptor [2]) | IC50 (rat Mas receptor; IP assay, HEK293 cells stably expressing rat Mas, 4 h, means ± SEM, read-out: Rat IC50) [nM] | ligand activity in IP assay, rat Mas (rat Mas receptor; Table C, line under Rat IC50) |
| --- | --- | --- | --- | --- | --- | --- | --- | --- |
| NC(=O)[C@H](CO)NCc1ccc(C(=O)Nc2ccc(Cl)cc2N2CCN(CCC(F)(F)F)CC2)c(F)c1F [Compound 170, (S)-4-((1-Amino-3-hydroxy-1-oxopropan-2-ylamino)methyl)-N-(4-chloro-2-(4-(3,3,3-trifluoropropyl)piperazin-1-yl)phenyl)-2,3-difluorobenzamide] | reduced brain damage | 15.6 | 21.4 |  |  |  |  |  |
| COc1cc([N+](=O)[O-])ccc1S(=O)(=O)N1CC(CN2CCN(c3ccccn3)CC2)C(c2cccc(F)c2)C1 (centres unmarked) [AR234960] |  |  |  | 351 ± 55 | (agonist) | significant increase | 172 ± 9 | (agonist) |
